Biological target: T1, His6-TEV-PPARγ-(234-505) (Homo sapiens, UniProt P37231)
T1 construct: The His6-TEV-PPARγ-(234-505) protein for assay was expressed and purified; TEV cleavage site (N); made in house
T1 sequence (P37231 234-505): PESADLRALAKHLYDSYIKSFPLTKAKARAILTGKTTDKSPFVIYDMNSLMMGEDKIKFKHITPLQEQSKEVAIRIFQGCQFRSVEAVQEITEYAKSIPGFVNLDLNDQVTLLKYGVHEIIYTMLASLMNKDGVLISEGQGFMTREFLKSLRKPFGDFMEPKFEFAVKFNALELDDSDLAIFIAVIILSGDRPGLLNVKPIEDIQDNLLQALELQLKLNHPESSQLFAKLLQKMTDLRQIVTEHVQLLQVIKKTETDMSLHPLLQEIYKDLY
Test: TR-FRET Assay to Measure Co-R Peptide Recruitment to PPARγ
Assay type: biochemical
Settings: Co-R peptide recruitment to PPARγ; read-out: TR-FRET AC50
In short: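 His-tagged PPARγ (or controls) was preincubated with compound for 20 minutes at room temperature, then 5 nM anti-His terbium antibody and 200 nM FITC-labeled SMRT-ID2 corepressor peptide (final) were added for a further hour. TR-FRET signal was normalized to percent response using 500 nM T0070907 and DMSO controls.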

Compound	AC50 [µM]
COc1cc(-c2cc(C(=O)N3CCC(C(=O)NCc4cc(F)cc(C(F)(F)F)c4)CC3)n[nH]2)c(Cl)cn1 [1-[5-(5-chloro-2-methoxypyridin-4-yl)-1H-pyrazole-3-carbonyl]-N-{[3-fluoro-5-(trifluoromethyl)phenyl]methyl}piperidine-4-carboxamide]	> 1
COc1cc(-c2cc(C(=O)N3CCC(C(=O)NC(C)(C)c4cccc(Cl)c4)CC3)n[nH]2)c(Cl)cn1 [1-[5-(5-chloro-2-methoxypyridin-4-yl)-1H-pyrazole-3-carbonyl]-N-[2-(3-chlorophenyl)propan-2-yl]piperidine-4-carboxamide]	> 1
COc1cc(-c2cc(C(=O)N3CC4CC3CC4C(=O)NC3CCC(O)(C(F)(F)F)CC3)n[nH]2)c(F)cn1 (centres unmarked)	> 1
COc1cc(-c2cc(C(=O)N3CCC(C(=O)Nc4cccc(F)c4F)CC3)n[nH]2)c(Cl)cn1 [1-[5-(5-chloro-2-methoxypyridin-4-yl)-1H-pyrazole-3-carbonyl]-N-(2,3-difluorophenyl)piperidine-4-carboxamide]	> 1
CC(C)Oc1cc(-c2cc(C(=O)N3CCC(C(=O)N[C@H]4CC[C@@](O)(C(F)(F)F)CC4)CC34CC4)n[nH]2)c(F)cn1 (single isomer, unassigned)	> 1
CCCN(C)C(=O)C1CCN(C(=O)c2cc(-c3ccncc3)[nH]n2)CC1 [N-methyl-N-propyl-1-[5-(pyridin-4-yl)-1H-pyrazole-3-carbonyl]piperidine-4-carboxamide]	> 1
C[C@@H](CNC(=O)C1CCN(C(=O)c2cc(-c3ccncc3)[nH]n2)CC1)c1ccccc1 [N-[(2R)-2-phenylpropyl]-1-[5-(pyridin-4-yl)-1H-pyrazole-3-carbonyl]piperidine-4-carboxamide]	> 1
Cc1cc(-c2cc(C(=O)N3CCC(C(=O)N[C@H]4CC[C@@](O)(C(F)(F)F)CC4)CC34CC4)n[nH]2)c([C@@H](C)O)cn1 (single isomer, unassigned)	> 1
COc1cc(-c2cc(C(=O)N3CCC(C(=O)NCc4ccc5c(c4)CN(C)C5)CC3)n[nH]2)c(Cl)cn1 [1-[5-(5-chloro-2-methoxypyridin-4-yl)-1H-pyrazole-3-carbonyl]-N-[(2-methyl-2,3-dihydro-1H-isoindol-5-yl)methyl]piperidine-4-carboxamide]	> 1
O=C(c1cc(-c2ccncc2)[nH]n1)N1CCC(C(=O)N2CCOCC2)CC1 [4-{1-[5-(pyridin-4-yl)-1H-pyrazole-3-carbonyl]piperidine-4-carbonyl}morpholine]	> 1
COc1cc(-c2cc(C(=O)N3CCC(C(=O)NC4CCC5(CCCN5)CC4)CC3)n[nH]2)c(F)cn1 (centres unmarked)	> 1
COc1cc(-c2cc(C(=O)N3CCC(C(=O)NCC4(F)COC4)CC3)n[nH]2)c(Cl)cn1 [1-[5-(5-chloro-2-methoxypyridin-4-yl)-1H-pyrazole-3-carbonyl]-N-[(3-fluorooxetan-3-yl)methyl]piperidine-4-carboxamide]	> 1
O=C(Nc1ccccc1)C1CCN(C(=O)c2cc(-c3ccncc3)[nH]n2)CC1 [N-phenyl-1-[5-(pyridin-4-yl)-1H-pyrazole-3-carbonyl]piperidine-4-carboxamide]	> 1
Cc1nc(CNC(=O)C2CCN(C(=O)c3cc(-c4ccncc4)[nH]n3)CC2)no1 [N-[(5-methyl-1,2,4-oxadiazol-3-yl)methyl]-1-[5-(pyridin-4-yl)-1H-pyrazole-3-carbonyl]piperidine-4-carboxamide]	> 1
COc1cc(-c2cc(C(=O)N3CCC(C(=O)NCc4ccc5[nH]cnc5c4)CC3)n[nH]2)c(Cl)cn1 [N-[(1H-1,3-benzodiazol-5-yl)methyl]-1-[5-(5-chloro-2-methoxypyridin-4-yl)-1H-pyrazole-3-carbonyl]piperidine-4-carboxamide]	> 1
COc1cc(-c2cc(C(=O)N3CCC(C(=O)N[C@H]4CC[C@H](C)CC4)CC3)n[nH]2)ccn1	> 1
CN(CCC#N)C(=O)C1CCN(C(=O)c2cc(-c3ccncc3)[nH]n2)CC1 [N-(2-cyanoethyl)-N-methyl-1-[5-(pyridin-4-yl)-1H-pyrazole-3-carbonyl]piperidine-4-carboxamide]	> 1

The next lines start with the values.

AC50 [µM]	Compound
> 1	O=C(NCCCN1CCOCC1)C1CCN(C(=O)c2cc(-c3ccncc3)[nH]n2)CC1 [N-[3-(morpholin-4-yl)propyl]-1-[5-(pyridin-4-yl)-1H-pyrazole-3-carbonyl]piperidine-4-carboxamide]
> 1	COc1cc(-c2cc(C(=O)N3CCC(C(=O)NC4CCS(=O)(=O)c5ccc(F)cc54)CC3)n[nH]2)c(Cl)cn1 (centres unmarked) [1-[5-(5-chloro-2-methoxypyridin-4-yl)-1H-pyrazole-3-carbonyl]-N-(6-fluoro-1,1-dioxo-3,4-dihydro-2H-1λ^6-benzothiopyran-4-yl)piperidine-4-carboxamide]
> 1	COc1cc(-c2cc(C(=O)N3CCC(C)(C(=O)NC4CCC(C)CC4)CC3)n[nH]2)ccn1 (centres unmarked) [1-[5-(2-methoxypyridin-4-yl)-1H-pyrazole-3-carbonyl]-4-methyl-N-(4-methylcyclohexyl)piperidine-4-carboxamide]
> 1	COc1cc(-c2cc(C(=O)N3CCC(C(=O)NC4CCC(C#N)CC4)CC3)n[nH]2)c(Cl)cn1 (centres unmarked) [1-[5-(5-chloro-2-methoxypyridin-4-yl)-1H-pyrazole-3-carbonyl]-N-(4-cyanocyclohexyl)piperidine-4-carboxamide]
> 1	COc1cc(-c2cc(C(=O)N3CCC(C(=O)N[C@H]4CC[C@](O)(C(F)(F)F)CC4)CC3)n[nH]2)c(Cl)cn1
> 1	CCOc1cc(-c2cc(C(=O)N3CCC(C(=O)N[C@H]4CC[C@@](OC)(C(F)(F)F)CC4)CC34CC4)n[nH]2)c(F)cn1 (single isomer, unassigned)
> 1	CN(Cc1ccc(C(C)(C)C)cc1)C(=O)C1CCN(C(=O)c2cc(-c3ccncc3)[nH]n2)CC1 [N-[(4-tert-butylphenyl)methyl]-N-methyl-1-[5-(pyridin-4-yl)-1H-pyrazole-3-carbonyl]piperidine-4-carboxamide]
> 1	O=C(NC1CCOCC1)C1CCN(C(=O)c2cc(-c3ccncc3)[nH]n2)CC1 [N-(oxan-4-yl)-1-[5-(pyridin-4-yl)-1H-pyrazole-3-carbonyl]piperidine-4-carboxamide]
> 1	O=C(NCc1ccc(Cl)cc1)C1CCN(C(=O)c2cc(-c3ccncc3)[nH]n2)CC1 [N-[(4-chlorophenyl)methyl]-1-[5-(pyridin-4-yl)-1H-pyrazole-3-carbonyl]piperidine-4-carboxamide]
> 1	COc1cc(-c2cc(C(=O)N3CCC(C(=O)NCc4ccc5nncn5c4)CC3)n[nH]2)c(Cl)cn1 [1-[5-(5-chloro-2-methoxypyridin-4-yl)-1H-pyrazole-3-carbonyl]-N-({[1,2,4]triazolo[4,3-a]pyridin-6-yl}methyl)piperidine-4-carboxamide]
> 1	COc1ccc(CNC(=O)C2CCN(C(=O)c3cc(-c4cc(OC)ncc4Cl)[nH]n3)CC2)cn1 [1-[5-(5-chloro-2-methoxypyridin-4-yl)-1H-pyrazole-3-carbonyl]-N-[(6-methoxypyridin-3-yl)methyl]piperidine-4-carboxamide]
> 1	COc1cc(-c2cc(C(=O)N3CCC(C(=O)NCc4ccc5ncnn5c4)CC3)n[nH]2)c(Cl)cn1 [1-[5-(5-chloro-2-methoxypyridin-4-yl)-1H-pyrazole-3-carbonyl]-N-({[1,2,4]triazolo[1,5-a]pyridin-6-yl}methyl)piperidine-4-carboxamide]
> 1	COc1cc(-c2cc(C(=O)N3CCC(C(=O)NCC4(N(C)C)CCCC4)CC3)n[nH]2)c(Cl)cn1 [1-[5-(5-chloro-2-methoxypyridin-4-yl)-1H-pyrazole-3-carbonyl]-N-{[1-(dimethylamino)cyclopentyl]methyl}piperidine-4-carboxamide]
> 1	O=C(c1cc(-c2ccncc2)[nH]n1)N1CCC(C(=O)N2CCCCC2)CC1 [4-{3-[4-(piperidine-1-carbonyl)piperidine-1-carbonyl]-1H-pyrazol-5-yl}pyridine]
> 1	COc1cc(-c2cc(C(=O)N3CCC(C(=O)Nc4cc(-c5ccccc5)[nH]n4)CC3)n[nH]2)c(Cl)cn1 [1-[5-(5-chloro-2-methoxypyridin-4-yl)-1H-pyrazole-3-carbonyl]-N-(5-phenyl-1H-pyrazol-3-yl)piperidine-4-carboxamide]
> 1	C[C@H](CNC(=O)C1CCN(C(=O)c2cc(-c3ccncc3)[nH]n2)CC1)c1ccccc1 [N-[(2S)-2-phenylpropyl]-1-[5-(pyridin-4-yl)-1H-pyrazole-3-carbonyl]piperidine-4-carboxamide]
> 1	COc1cc(-c2cc(C(=O)N3CC[C@H](C(=O)NCC45CC(CN4CC(C)(C)F)C5)CC34CC4)n[nH]2)c(F)cn1
> 1	O=C(N[C@H]1CCN(Cc2ccccc2)C1)C1CCN(C(=O)c2cc(-c3cccnc3)[nH]n2)CC1 [N-[(3S)-1-benzylpyrrolidin-3-yl]-1-[5-(pyridin-3-yl)-1H-pyrazole-3-carbonyl]piperidine-4-carboxamide]
> 1	CCC1CCC(NC(=O)C2CCN(C(=O)c3cc(-c4ccnc(OC)c4)[nH]n3)CC2)CC1 (centres unmarked)
> 1	COc1cc(-c2cc(C(=O)N3CCC(C(=O)NC45CCC(O)(CC4)C5)CC3)n[nH]2)c(F)cn1
> 1	COc1cc(-c2cc(C(=O)N3CCC(C(=O)NCC4OCCO4)CC3)n[nH]2)c(Cl)cn1 [1-[5-(5-chloro-2-methoxypyridin-4-yl)-1H-pyrazole-3-carbonyl]-N-[(1,3-dioxolan-2-yl)methyl]piperidine-4-carboxamide]

Reference: US12606541B2, “PPARg modulators and methods of use” (Eisai R&D Management Co., Ltd., priority 2020, dated 2026)
